Results reported in patent US20070128217A1 (priority 2003, published 2007).

What was measured:
[1] = system: rabbit serum obtained by immunizing a rabbit with the SARS-CoV strain Frankfurt 1; format: binding; design: Binding of a rabbit serum to linear peptides / Binding of a rabbit serum to looped peptides / Rabbit serum linear peptides / Rabbit serum looped peptides / Binding of a rabbit serum to linear peptides of protein N of SARS-CoV Urbani (Rabbit serum linear peptides) / Binding of a rabbit serum to looped/cyclic peptides of protein N of SARS-CoV Urbani (Rabbit serum looped peptides): unit not given here
[2] = system: control sera (pooled serum of ten healthy LUMC hospital workers; commercial negative donor pooled serum from the Dutch bloodbank); format: binding, human; design: Binding of Control serum LUMC to linear peptides / Binding of Control serum Blood-bank to linear peptides / Binding of Control serum LUMC to looped peptides / Binding of Control Serum Blood-Bank to Looped peptides / Binding of Control serum LUMC to linear peptides of the protein M of SARS-CoV Urbani / Binding of Control serum Blood-bank to linear peptides of the protein M of SARS-CoV Urbani / Binding of Control serum LUMC to looped peptides of the protein M of SARS-CoV Urbani / Binding of Control Serum Blood-Bank to Looped peptides of the protein M of SARS-CoV Urbani: unit not given here
[3] = system: antibodies in sera from SARS patients (sera 1a, 1b, 2, 6, 37, 62, London, SARS-yellow, SARS-green); format: binding, human; design: Binding of serum 6 to linear peptides of protein X1 of SARS-CoV Urbani / Binding of serum 37 to linear peptides of protein X1 of SARS-CoV Urbani / Binding of serum 6 to looped/cyclic peptide (PEPSCAN-ELISA) / Binding of serum 37 to looped/cyclic peptide (PEPSCAN-ELISA) / Binding of serum 37 to looped/cyclic peptides of protein X1 of SARS-CoV Urbani / Binding of serum 6 to linear peptides of protein X2 / Binding of serum 37 to linear peptides of protein X2 / Binding of serum 37 to looped/cyclic peptides of protein X2 of SARS-CoV Urbani / Binding of serum 6 to linear peptides of protein M of SARS-CoV Urbani / Binding of serum 37 to linear peptides of protein M of SARS-CoV Urbani / Binding of serum 6 to looped/cyclic peptides of protein M of SARS-CoV Urbani / Binding of serum 37 to looped/cyclic peptides of protein M of SARS-CoV Urbani / Binding of serum 6 to linear peptides of protein X3 of SARS-CoV Urbani / Binding of serum 37 to linear peptides of protein X3 of SARS-CoV Urbani / Binding of serum 37 to looped/cyclic peptides of protein X3 of SARS-CoV Urbani / Binding of serum 6 to linear peptides of protein X4 of SARS-CoV Urbani / Binding of serum 37 to linear peptides of protein X4 of SARS-CoV Urbani / Binding of serum 37 to looped/cyclic peptides of protein X4 of SARS-CoV Urbani / Binding of serum 6 to linear peptides of protein X5 of SARS-CoV Urbani / Binding of serum 37 to linear peptides of protein X5 of SARS-CoV Urbani / Binding of serum 37 to looped/cyclic peptides of protein X5 of SARS-CoV Urbani / Binding of serum 6 to linear peptides of protein N of SARS-CoV Urbani / Binding of serum 37 to linear peptides of protein N of SARS-CoV Urbani / Binding of serum 6 to linear peptide (PEPSCAN-ELISA) / Binding of serum 1a to looped/cyclic peptides of protein N of SARS-CoV Urbani / Binding of serum 1b to looped/cyclic peptides of protein N of SARS-CoV Urbani / Binding of serum 2 to looped/cyclic peptides of protein N of SARS-CoV Urbani / Binding of serum 6 to looped/cyclic peptides of protein N of SARS-CoV Urbani / Binding of serum 37 to looped/cyclic peptides of protein N of SARS-CoV Urbani / Binding of serum 62 to looped/cyclic peptides of protein N of SARS-CoV Urbani / Binding of serum London to looped/cyclic peptides of protein N of SARS-CoV Urbani / Binding of serum SARS-green to looped/cyclic peptides of protein N of SARS-CoV Urbani: unit not given here
[4] = system: recombinant human anti-SARS-CoV antibody 03-018; format: binding; design: Binding of antibody 03-018 to linear peptides of the N protein of SARS-CoV Urbani / Binding of antibody 03-018 to looped/cyclic peptides of the N protein of SARS-CoV Urbani: unit not given here

Sequence	Binding of Control Serum Blood-Bank to Looped peptides [2]	Binding of Control serum Blood-bank to linear peptides [2]	Binding of Control serum LUMC to linear peptides [2]	Binding of Control serum LUMC to looped peptides [2]	Binding of serum 1a to linear peptide (PEPSCAN-ELISA) [3]	Binding of serum 1a to looped/cyclic peptides of protein N of SARS-CoV Urbani [3]	Binding of serum 1b to linear peptide (PEPSCAN-ELISA) [3]	Binding of serum 1b to looped/cyclic peptides of protein N of SARS-CoV Urbani [3]	Binding of serum 2 to linear peptide (PEPSCAN-ELISA) [3]	Binding of serum 2 to looped/cyclic peptides of protein N of SARS-CoV Urbani [3]	Binding of serum 6 to looped/cyclic peptides of protein N of SARS-CoV Urbani [3]	Binding of serum 37 to looped/cyclic peptides of protein N of SARS-CoV Urbani [3]	Binding of serum 62 to looped/cyclic peptides of protein N of SARS-CoV Urbani [3]	Binding of serum London to looped/cyclic peptides of protein N of SARS-CoV Urbani [3]	Binding of serum SARS-green to looped/cyclic peptides of protein N of SARS-CoV Urbani [3]	Binding of serum SARS-yellow to looped/cyclic peptides of protein N of SARS-CoV Urbani [3]	Binding of antibody 03-018 to linear peptides of the N protein of SARS-CoV Urbani [4]	Binding of antibody 03-018 to looped/cyclic peptides of the N protein of SARS-CoV Urbani [4]	Binding of a rabbit serum to linear peptides of protein N of SARS-CoV Urbani (Rabbit serum linear peptides) [1]	Binding of a rabbit serum to looped/cyclic peptides of protein N of SARS-CoV Urbani (Rabbit serum looped peptides) [1]	further results
TQAFGRRGPEQTQGN	0.7	0.8	0.7	0.6	0.2	0.3	0.1	0.2	0.2	0.4	0.3	0.5	0.5	0.4	0.3	0.2	0.1	0.2			Recognition of the peptide by the rabbit serum [1]: recognized; Binding of serum 6 to linear peptide (PEPSCAN-ELISA) [3]: 0.2; Binding of serum 37 to linear peptide (PEPSCAN-ELISA) [3]: 0.6; Binding of serum 62 to linear peptide (PEPSCAN-ELISA) [3]: 0.5; Binding of serum London to linear peptide (PEPSCAN-ELISA) [3]: 0.5; Binding of serum SARS-green to linear peptide (PEPSCAN-ELISA) [3]: 0.3; Binding of serum SARS-yellow to linear peptide (PEPSCAN-ELISA) [3]: 0.5
EASLPYGANKEGIVW	0.7	0.8	0.6	0.6		0.3		0.2		0.4	0.2	0.7	0.6	0.5	0.5	0.2	0.1	0.2	0.1	0.3	Binding of serum 1a to linear peptides of protein N of SARS-CoV Urbani [3]: 0.2; Binding of serum 1b to linear peptides of protein N of SARS-CoV Urbani [3]: 0.1; Binding of serum 2 to linear peptides of protein N of SARS-CoV Urbani [3]: 0.2; Binding of serum 6 to linear peptides of protein N of SARS-CoV Urbani [3]: 0.1; Binding of serum 37 to linear peptides of protein N of SARS-CoV Urbani [3]: 0.5; Binding of serum 62 to linear peptides of protein N of SARS-CoV Urbani [3]: 0.5; Binding of serum London to linear peptides of protein N of SARS-CoV Urbani [3]: 0.4; Binding of serum SARS-green to linear peptides of protein N of SARS-CoV Urbani [3]: 0.2; Binding of serum SARS-yellow to linear peptides of protein N of SARS-CoV Urbani [3]: 0.6
RGPEQTQGNFGDQDL	0.4	0.7	0.7	0.6		0.4		0.4		0.4	0.2	0.6	0.5	0.4	0.6	0.6	0.1	0.2	0.2	0.3	Recognition of the peptide by sera of SARS-CoV infected individuals, and form (linear, looped/cyclic) in which it is recognized [3]: recognized in linear form
GQGVPINTNSGPDDQ	0.5	0.5	0.5	0.3		0.2		0.1		0.3	0.1	0.4	0.1	0.3	0.1	0.1	0.1	0.2	0.1	0.0	Binding of serum 1a to linear peptides of protein N of SARS-CoV Urbani [3]: 0.3; Binding of serum 1b to linear peptides of protein N of SARS-CoV Urbani [3]: 0.1; Binding of serum 2 to linear peptides of protein N of SARS-CoV Urbani [3]: 0.2; Binding of serum 6 to linear peptides of protein N of SARS-CoV Urbani [3]: 0.2; Binding of serum 37 to linear peptides of protein N of SARS-CoV Urbani [3]: 0.8; Binding of serum 62 to linear peptides of protein N of SARS-CoV Urbani [3]: 0.6; Binding of serum London to linear peptides of protein N of SARS-CoV Urbani [3]: 0.6; Binding of serum SARS-green to linear peptides of protein N of SARS-CoV Urbani [3]: 0.5; Binding of serum SARS-yellow to linear peptides of protein N of SARS-CoV Urbani [3]: 0.6
SSRSRGNSRNSTPGS	0.5	0.6	0.5	0.5	0.8	0.3	0.5	0.1	0.1	0.3	0.1	0.4	0.3	0.3	0.0	0.1	0.1	0.2	0.1	0.0	Binding of serum 6 to linear peptide (PEPSCAN-ELISA) [3]: 0.2; Binding of serum 37 to linear peptide (PEPSCAN-ELISA) [3]: 0.6; Binding of serum 62 to linear peptide (PEPSCAN-ELISA) [3]: 0.5; Binding of serum London to linear peptide (PEPSCAN-ELISA) [3]: 0.4; Binding of serum SARS-green to linear peptide (PEPSCAN-ELISA) [3]: 0.1; Binding of serum SARS-yellow to linear peptide (PEPSCAN-ELISA) [3]: 0.5
